Measured values published in ChEMBL document CHEMBL5649166, “RIP3 induces apoptosis independent of pronecrotic kinase activity” (Mol Cell, 2014).

How the values were obtained:
[1] = biological target: Activin receptor type-1-like (Homo sapiens) (UniProt P37023); assay: Inhibition of human ALK1/ACVRL1 using casein as substrate at 1 uM in presence of 32P-ATP by Hotspot assay relative to control; values are per cent of control
[2] = biological target: Calcium/calmodulin-dependent protein kinase type II subunit gamma (Homo sapiens) (UniProt Q13555); assay: Inhibition of human CAMK2g using KKLNRTLSFAEPG as substrate at 1 uM in presence of 32P-ATP by Hotspot assay relative to control; values are per cent of control
[3] = biological target: T1, Dual specificity tyrosine-phosphorylation-regulated kinase 4 (Homo sapiens) (UniProt Q9NR20); assay: Inhibition of human DYRK4 using RRRFRPASPLRGPPK as substrate at 1 uM in presence of 32P-ATP by Hotspot assay relative to control; values are per cent of control
T1 sequence (whole entry): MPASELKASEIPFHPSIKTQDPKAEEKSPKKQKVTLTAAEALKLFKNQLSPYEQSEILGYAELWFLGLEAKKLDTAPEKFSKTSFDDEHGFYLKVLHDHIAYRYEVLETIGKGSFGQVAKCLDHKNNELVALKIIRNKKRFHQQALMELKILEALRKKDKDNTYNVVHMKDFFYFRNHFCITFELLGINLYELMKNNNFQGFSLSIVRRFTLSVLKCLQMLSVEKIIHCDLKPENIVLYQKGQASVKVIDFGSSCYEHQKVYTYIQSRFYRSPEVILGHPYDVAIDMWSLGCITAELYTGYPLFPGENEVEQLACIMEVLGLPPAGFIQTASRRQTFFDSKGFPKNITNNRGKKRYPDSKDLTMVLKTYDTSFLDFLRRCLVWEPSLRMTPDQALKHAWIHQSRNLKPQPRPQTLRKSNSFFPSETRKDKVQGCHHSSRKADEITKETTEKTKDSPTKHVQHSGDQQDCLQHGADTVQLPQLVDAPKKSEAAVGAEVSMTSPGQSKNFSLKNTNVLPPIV

[4] = biological target: T2, Serine/threonine-protein kinase Sgk1 (Homo sapiens) (UniProt O00141); assay: Inhibition of human SGK1 using KGSGSGRPRTSSFAEG as substrate at 1 uM in presence of 32P-ATP by Hotspot assay relative to control; values are per cent of control
T2 sequence (whole entry): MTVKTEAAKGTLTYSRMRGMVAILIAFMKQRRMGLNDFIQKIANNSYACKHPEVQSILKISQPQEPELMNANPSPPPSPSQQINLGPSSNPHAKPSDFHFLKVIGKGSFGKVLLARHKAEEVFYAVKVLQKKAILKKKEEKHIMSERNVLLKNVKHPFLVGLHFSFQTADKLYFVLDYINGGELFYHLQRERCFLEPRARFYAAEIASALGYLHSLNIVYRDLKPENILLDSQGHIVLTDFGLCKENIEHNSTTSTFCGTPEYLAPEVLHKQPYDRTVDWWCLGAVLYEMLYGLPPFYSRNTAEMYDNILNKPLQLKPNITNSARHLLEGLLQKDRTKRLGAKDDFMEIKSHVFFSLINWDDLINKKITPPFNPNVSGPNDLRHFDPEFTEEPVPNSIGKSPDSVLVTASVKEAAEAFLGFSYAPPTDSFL

[5] = biological target: Proto-oncogene tyrosine-protein kinase Src (Homo sapiens) (UniProt P12931); assay: Inhibition of human c-Src using poly[Glu:Tyr] (4:1) as substrate at 1 uM in presence of 32P-ATP by Hotspot assay relative to control; values are per cent of control
[6] = biological target: T3, Homeodomain-interacting protein kinase 4 (Homo sapiens) (UniProt Q8NE63); assay: Inhibition of human HIPK4 using myelin basic protein as substrate at 1 uM in presence of 32P-ATP by Hotspot assay relative to control; values are per cent of control
T3 sequence (whole entry): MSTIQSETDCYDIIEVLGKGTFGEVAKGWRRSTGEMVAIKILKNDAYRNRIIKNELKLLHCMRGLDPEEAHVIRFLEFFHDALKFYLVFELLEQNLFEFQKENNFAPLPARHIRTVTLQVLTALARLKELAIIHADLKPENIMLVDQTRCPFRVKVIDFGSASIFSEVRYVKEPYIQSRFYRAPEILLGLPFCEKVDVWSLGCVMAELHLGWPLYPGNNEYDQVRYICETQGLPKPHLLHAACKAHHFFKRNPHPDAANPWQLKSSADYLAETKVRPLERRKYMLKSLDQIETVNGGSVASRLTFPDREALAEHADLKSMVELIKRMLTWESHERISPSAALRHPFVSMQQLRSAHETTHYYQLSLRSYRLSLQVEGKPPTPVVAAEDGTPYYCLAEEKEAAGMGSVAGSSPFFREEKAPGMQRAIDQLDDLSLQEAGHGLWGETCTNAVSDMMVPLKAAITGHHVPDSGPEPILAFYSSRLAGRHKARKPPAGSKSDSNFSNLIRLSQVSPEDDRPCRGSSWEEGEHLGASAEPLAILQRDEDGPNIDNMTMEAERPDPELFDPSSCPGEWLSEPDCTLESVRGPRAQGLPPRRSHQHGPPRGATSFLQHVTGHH

[7] = biological target: Tyrosine-protein kinase FRK (Homo sapiens) (UniProt P42685); assay: Inhibition of human FRK/PTK5 using poly[Glu:Tyr] (4:1) as substrate at 1 uM in presence of 32P-ATP by Hotspot assay relative to control; values are per cent of control
[8] = biological target: Mitogen-activated protein kinase kinase kinase 11 (Homo sapiens) (UniProt Q16584); assay: Inhibition of human MLK3/MAP3K11 using myelin basic protein as substrate at 1 uM in presence of 32P-ATP by Hotspot assay relative to control; values are per cent of control
Chain of Mitogen-activated protein kinase kinase kinase 11 (Homo sapiens) (Q16584 whole entry, looked up): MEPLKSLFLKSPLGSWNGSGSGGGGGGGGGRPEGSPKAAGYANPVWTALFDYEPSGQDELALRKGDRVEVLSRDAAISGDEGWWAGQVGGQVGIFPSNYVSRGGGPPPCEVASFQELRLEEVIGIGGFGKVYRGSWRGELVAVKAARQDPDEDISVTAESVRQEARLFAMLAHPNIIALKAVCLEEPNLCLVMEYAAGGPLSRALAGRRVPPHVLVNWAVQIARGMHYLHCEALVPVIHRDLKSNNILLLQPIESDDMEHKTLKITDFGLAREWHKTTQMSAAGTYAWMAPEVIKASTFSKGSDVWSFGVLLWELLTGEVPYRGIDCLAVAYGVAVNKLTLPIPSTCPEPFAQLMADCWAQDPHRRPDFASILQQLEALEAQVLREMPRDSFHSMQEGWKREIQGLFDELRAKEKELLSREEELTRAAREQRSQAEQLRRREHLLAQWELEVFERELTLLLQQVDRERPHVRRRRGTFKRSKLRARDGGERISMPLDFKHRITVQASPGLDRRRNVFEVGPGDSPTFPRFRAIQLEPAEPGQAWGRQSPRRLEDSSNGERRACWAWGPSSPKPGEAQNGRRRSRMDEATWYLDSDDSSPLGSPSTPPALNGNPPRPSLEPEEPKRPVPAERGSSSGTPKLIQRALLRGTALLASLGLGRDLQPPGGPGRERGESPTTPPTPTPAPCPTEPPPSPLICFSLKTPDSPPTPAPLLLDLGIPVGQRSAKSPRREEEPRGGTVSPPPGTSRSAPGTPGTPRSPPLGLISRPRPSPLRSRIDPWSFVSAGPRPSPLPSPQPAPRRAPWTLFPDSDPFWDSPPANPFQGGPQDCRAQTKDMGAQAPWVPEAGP

Chain of Calcium/calmodulin-dependent protein kinase type II subunit gamma (Homo sapiens) (Q13555 whole entry): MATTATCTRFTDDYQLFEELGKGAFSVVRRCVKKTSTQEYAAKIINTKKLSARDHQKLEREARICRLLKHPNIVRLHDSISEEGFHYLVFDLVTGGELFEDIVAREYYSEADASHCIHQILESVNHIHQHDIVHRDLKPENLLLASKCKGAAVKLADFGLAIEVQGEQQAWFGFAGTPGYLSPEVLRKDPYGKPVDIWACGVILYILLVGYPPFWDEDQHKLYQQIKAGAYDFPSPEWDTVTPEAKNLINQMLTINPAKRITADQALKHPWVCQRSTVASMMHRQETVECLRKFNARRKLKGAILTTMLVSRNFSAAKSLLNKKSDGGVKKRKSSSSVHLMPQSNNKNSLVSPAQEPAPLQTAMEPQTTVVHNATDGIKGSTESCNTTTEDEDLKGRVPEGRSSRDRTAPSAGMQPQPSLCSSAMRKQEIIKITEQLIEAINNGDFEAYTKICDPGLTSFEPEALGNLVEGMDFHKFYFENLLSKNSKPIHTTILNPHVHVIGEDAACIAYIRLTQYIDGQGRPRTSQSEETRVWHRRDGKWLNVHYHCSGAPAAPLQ
Chain of Proto-oncogene tyrosine-protein kinase Src (Homo sapiens) (P12931 2-536 limits assumed): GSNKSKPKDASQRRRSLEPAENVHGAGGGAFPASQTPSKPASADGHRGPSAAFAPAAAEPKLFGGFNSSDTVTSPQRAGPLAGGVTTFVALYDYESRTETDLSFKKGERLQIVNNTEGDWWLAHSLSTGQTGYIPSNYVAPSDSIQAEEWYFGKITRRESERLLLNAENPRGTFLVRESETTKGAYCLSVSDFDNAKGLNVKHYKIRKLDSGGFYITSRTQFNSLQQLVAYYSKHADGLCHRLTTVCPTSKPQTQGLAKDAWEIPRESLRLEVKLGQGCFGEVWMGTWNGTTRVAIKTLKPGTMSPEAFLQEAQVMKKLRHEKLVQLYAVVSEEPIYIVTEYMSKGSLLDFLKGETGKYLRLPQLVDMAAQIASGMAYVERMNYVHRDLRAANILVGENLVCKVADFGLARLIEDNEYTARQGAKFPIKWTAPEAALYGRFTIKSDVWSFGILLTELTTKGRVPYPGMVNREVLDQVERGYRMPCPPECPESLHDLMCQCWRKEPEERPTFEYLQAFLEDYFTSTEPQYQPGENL
Chain of Tyrosine-protein kinase FRK (Homo sapiens) (P42685 whole entry): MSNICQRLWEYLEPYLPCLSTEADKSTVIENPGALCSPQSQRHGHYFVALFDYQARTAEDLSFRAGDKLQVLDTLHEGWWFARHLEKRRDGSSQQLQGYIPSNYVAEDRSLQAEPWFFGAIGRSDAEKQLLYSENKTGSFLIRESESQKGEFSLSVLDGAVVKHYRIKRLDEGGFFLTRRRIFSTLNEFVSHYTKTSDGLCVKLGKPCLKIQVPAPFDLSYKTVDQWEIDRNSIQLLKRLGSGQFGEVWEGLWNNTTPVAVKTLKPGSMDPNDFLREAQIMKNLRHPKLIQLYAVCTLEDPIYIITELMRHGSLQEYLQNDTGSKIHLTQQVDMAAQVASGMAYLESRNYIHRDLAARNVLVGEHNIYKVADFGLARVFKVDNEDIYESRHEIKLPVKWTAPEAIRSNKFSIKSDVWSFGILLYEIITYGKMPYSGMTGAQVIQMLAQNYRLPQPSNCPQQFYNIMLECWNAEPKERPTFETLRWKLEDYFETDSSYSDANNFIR
Chain of Activin receptor type-1-like (Homo sapiens) (P37023 whole entry): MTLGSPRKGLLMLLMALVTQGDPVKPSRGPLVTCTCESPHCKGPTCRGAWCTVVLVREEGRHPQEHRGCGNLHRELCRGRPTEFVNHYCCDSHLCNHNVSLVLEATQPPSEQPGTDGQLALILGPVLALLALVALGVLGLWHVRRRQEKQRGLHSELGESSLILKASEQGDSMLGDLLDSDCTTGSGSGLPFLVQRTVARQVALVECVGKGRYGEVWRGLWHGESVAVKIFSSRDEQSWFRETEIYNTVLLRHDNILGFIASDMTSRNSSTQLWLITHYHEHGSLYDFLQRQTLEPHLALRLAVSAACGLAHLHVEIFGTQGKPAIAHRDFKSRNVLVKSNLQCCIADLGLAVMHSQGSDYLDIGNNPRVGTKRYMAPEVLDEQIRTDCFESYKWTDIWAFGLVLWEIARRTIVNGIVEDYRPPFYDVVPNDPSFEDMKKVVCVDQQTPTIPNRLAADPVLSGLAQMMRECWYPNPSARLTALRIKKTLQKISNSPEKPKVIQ

## Cc1cc(-c2cnc(N)c3c(-c4ccc5scnc5c4)csc23)n(C)n1
[1]
  residual activity: 93.9%
[2]
  residual activity: 82.4%
[3]
  residual activity: 98.2%
[4]
  residual activity: 94.2%
[5]
  residual activity: 37.1%
[6]
  residual activity: 106%
[7]
  residual activity: 65.3%
[8]
  residual activity: 69.5%

## CC(C)S(=O)(=O)c1ccc2nccc(Nc3ccc4scnc4c3)c2c1
[1]
  residual activity: 102%
[2]
  residual activity: 98.3%
[3]
  residual activity: 102%
[4]
  residual activity: 95.7%
[5]
  residual activity: 28.3%
[6]
  residual activity: 93.7%
[7]
  residual activity: 33.5%
[8]
  residual activity: 81.1%

## CNC(=O)c1ccc2c(c1)ncn2-c1ccc(CC(=O)OC(C)(C)C)cc1
[1]
  residual activity: 95.4%
[2]
  residual activity: 98.5%
[3]
  residual activity: 99.6%
[4]
  residual activity: 94.2%
[5]
  residual activity: 80%
[6]
  residual activity: 107%
[7]
  residual activity: 90.8%
[8]
  residual activity: 85.4%
